Results as given in US6703347B2, “Isothiazole derivatives and their use as pesticides” (Syngenta Limited, priority 2000, dated 2004).
“And” between values parts separate entries of the source, which are not always exact repeats. Equal entries are not always repeated.

Columns and labels:
[1] = tested on: peach potato aphids (Myzus persicae); details: 500 ppm by weight; infested Chinese cabbage leaves sprayed; mortality assessed after three days
Protocol: This Example illustrates the pesticidal/insecticidal properties of compounds of formula (I). The activities of individual compounds of formula (I) were determined using a variety of pests. The pests were treated with a liquid composition containing 500 parts per million (ppm) by weight of a compound of formula (I). Each composition was made by dissolving the compound in an acetone and ethanol (50:50 by volume) mixture and diluting the solution with water containing 0.05% by volume of a wetting agent, SYNPERONIC NP8, until the liquid composition contained the required concentration of the compound.
(§1) The test procedure adopted with regard to each pest was essentially the same and comprised supporting a number of the pests on a medium, which was usually a substrate, a host plant or a foodstuff on which the pests feed, and treating either or both the medium and the pests with a composition. Pest mortality was assessed usually between two and five days after treatment.
In each test against peach potato aphids (Myzus persicae), Chinese cabbage leaves were infested with aphids, the infested leaves were sprayed with a test composition and pest mortality was assessed after three days.

[2] = tested on: two-spotted spider mites (Tetranychus urticae); details: liquid composition containing 500 ppm by weight of compound
Protocol: (§2) The activities of individual compounds of formula (I) were determined using a variety of pests. The pests were treated with a liquid composition containing 500 parts per million (ppm) by weight of a compound of formula (I). Each composition was made by dissolving the compound in an acetone and ethanol (50:50 by volume) mixture and diluting the solution with water containing 0.05% by volume of a wetting agent, SYNPERONIC NP8, until the liquid composition contained the required concentration of the compound.
as §1
(§3) Similar tests were conducted against, independently, two-spotted spider mites (Tetranychus urticae), fruit flies (Drosophila melanogaster), tobacco budworms (Heliothis virescens), diamond back moth (Plutella xylostella) and corn root worm (Diabrotica balteata).

[3] = tested on: fruit flies (Drosophila melanogaster); experiment: pesticidal test against fruit flies; details: liquid composition containing 500 ppm by weight of compound
Protocol: as §2, §1, §3

[4] = tested on: corn root worm (Diabrotica balteata); experiment: pesticidal test against corn root worm; details: liquid composition containing 500 ppm by weight of compound
Protocol: as §2, §1, §3

[5] = tested on: tobacco budworms (Heliothis virescens); experiment: pesticidal test against tobacco budworms; details: liquid composition containing 500 ppm by weight of compound
[6] = tested on: diamond back moth (Plutella xylostella); experiment: pesticidal test against diamond back moth; details: liquid composition containing 500 ppm by weight of compound

Row | SMILES | mortality (score) Mp [1] | mortality (score) Tu [2] | mortality (score) Dm [3] | mortality (score) Db [4] | mortality (score) Hv [5] | mortality (score) Px [6]
1 | Cc1nsc(NC(=O)C(SC(C)C)c2ccc3oc(CC(C)(C)C)nc3c2)c1Cl (stereo not drawn) [Table 22 Compound 7] | 0 (represents less than 40% mortality) | 9 (9 indicates 80-100% mortality) |  |  |  | 
2 | CCOCN(C(=O)C(C)c1ccc2oc(CC(C)C)nc2c1)c1snc(C)c1Cl (stereo not drawn) [Table 1 Compound 76] | 9 (9 indicates 80-100% mortality) |  | 9 (9 indicates 80-100% mortality) | 9 (9 indicates 80-100% mortality) | 5 (5 indicates 40-79% mortality) | 9 (9 indicates 80-100% mortality)
3 | Cc1nsc(NC(=O)C(=CNCc2ccc(Cl)cc2)c2ccc3oc(CC(C)(C)C)nc3c2)c1Cl [Table 19 Compound 7] | 5 (5 indicates 40-79% mortality) and 9 (9 indicates 80-100% mortality) | 9 (9 indicates 80-100% mortality) |  |  |  | 
4 | CCOCN(C(=O)C(C)c1ccc2sc(CC(C)(C)C)nc2c1)c1snc(CC)c1Cl (stereo not drawn) [Table 39 Compound 157] | 9 (9 indicates 80-100% mortality) |  | 0 (represents less than 40% mortality) | 9 (9 indicates 80-100% mortality) | 9 (9 indicates 80-100% mortality) | 9 (9 indicates 80-100% mortality)
5 | CCOCN(C(=O)C(F)c1ccc2oc(CC(C)(C)C)nc2c1)c1snc(CC)c1Cl (stereo not drawn) [Table 5 Compound 157] | 9 (9 indicates 80-100% mortality) |  | 9 (9 indicates 80-100% mortality) | 9 (9 indicates 80-100% mortality) | 9 (9 indicates 80-100% mortality) | 9 (9 indicates 80-100% mortality)
6 | CCOCN(C(=O)C(C)c1ccc2oc(CC(C)(C)C)nc2c1)c1snc(CC)c1Cl (stereo not drawn) [Table 1 Compound 157] | 9 (9 indicates 80-100% mortality) |  | 0 (represents less than 40% mortality) | 9 (9 indicates 80-100% mortality) | 9 (9 indicates 80-100% mortality) | 9 (9 indicates 80-100% mortality)
7 | CCc1nsc(NC(=O)C(OC)c2ccc3oc(CC(C)C)nc3c2)c1Cl (stereo not drawn) [Table 9 Compound 86] | 9 (9 indicates 80-100% mortality) |  | 5 (5 indicates 40-79% mortality) | 9 (9 indicates 80-100% mortality) | 9 (9 indicates 80-100% mortality) | 9 (9 indicates 80-100% mortality)
8 | CCOCN(C(=O)C(F)c1ccc2oc(CC(C)(C)C)nc2c1)c1snc(C)c1Cl (stereo not drawn) [Table 5 Compound 77] | 9 (9 indicates 80-100% mortality) |  | 0 (represents less than 40% mortality) | 9 (9 indicates 80-100% mortality) | 5 (5 indicates 40-79% mortality) | 9 (9 indicates 80-100% mortality)
9 | CCc1nsc(NC(=O)C(C)c2ccc3sc(CC(C)(C)C)nc3c2)c1Cl (stereo not drawn) [Table 39 Compound 87] | 0 (represents less than 40% mortality) |  | 0 (represents less than 40% mortality) | 9 (9 indicates 80-100% mortality) | 9 (9 indicates 80-100% mortality) | 9 (9 indicates 80-100% mortality)
